Measured values reported in patent US20220332799A1, “HERV INHIBITORS FOR USE IN TREATING TAUOPATHIES” (Deutsches Zentrum Für Neurodegenerative Erkrankungen E.V. …, priority 2019, published 2022).

Tests used:
[1] = tested on: HEK Tau-FusionRed^sol cells expressing murine XPR1-HA; assay: Tau aggregate induction in recipient cells by EVs from N2a s2E Tau-GFP^CBD donor cells; assay type: cell-based, human; conditions: EVs from treated donors; recipients cultured in drug-containing medium, 3 d
Experimental: To examine this effect on Tau aggregate spreading, an N2a s2E cell clone stably propagating aggregated Tau-GFP^CBD was produced (FIG. 11a). […]. Cells and EVs were analyzed for the presence of aggregated Tau-GFP. Pronase-resistant Tau-GFP was found in both cell lysate and EVs (FIG. 2q). To inhibit MuERV gene product maturation, donor cells were treated with Amprenavir for three days. Donor cells and donor cell-derived EVs were subsequently exposed for three days to recipient HEK cells expressing soluble Tau-FusionRed and the murine XPR1 receptor variant required for MuERV Env interaction. Due to this long incubation time, the coculture and EV induction assays were performed in the presence of Amprenavir (FIG. 11b). […]
(§1) Recipient cells were cultured on CellCarrier-96 plates or 384 black microplates (PerkinElmer) at appropriate cell numbers for 1 h, and then treated with 5-10 μl of prepared samples (isolated EVs or recombinant NM fibrils). […] On average, a total of 3-4×10^4 cells per well and at least 3 wells per treatment were analyzed.
(§2) The treatment of cells with Amprenavir (10 μM; Santa Cruz) and DMSO was performed for 72 h in EV-depleted medium in T175 flasks. Afterwards, the total numbers of viable cells and the viability upon drug treatment were determined using the Vi-VELL™ XR Cell Viability Analyzer (Beckman Coulter). […]

N2a NM-GFP^sol cells = assay: NM-GFP aggregate induction in recipient cells by EVs from donor clone N2a NM-HA^agg s2E; assay type: cell-based, mouse; conditions: EVs isolated from donors treated with 10 μM for 3 days; no drug on recipients, 16 h
Experimental: To prepare EV-depleted medium, FCS was ultracentrifuged at 100,000×g for 20 h at 4° C. Medium supplemented with the EV-depleted FCS and antibiotics was subsequently filtered through […] and a 0.1 μM filter-sterilization devices (Millipore). For EV isolation, 2-4×10^6 cells were seeded in T175 flasks in 35 ml EV-depleted medium to reach confluence after 3 days. Cells and cell debris were pelleted by differential centrifugation (300×g, 10 min; 2,000×g, 20 min; 16,000×g, 30 min, 4° C.). The remaining supernatant (conditioned medium) was subjected to ultracentrifugation at 100,000×g for 1 h at 4° C. using rotors Ti45 or SW32Ti (Beckman Coulter). The pellet was rinsed in PBS and spun again using rotor SW55Ti at 100,000×g for 1 h at 4° C.
as §1, §2

In the case of `CC(C)CN(C[C@@H](O)[C@H](Cc1ccccc1)NC(=O)O[C@H]1CCOC1)S(=O)(=O)c1ccc(N)cc1` [Amprenavir], the “Tau-FusionRed aggregate induction by EVs” value [1] is reported as “also decreased Tau-FusionRed aggregate induction in murine XPR1 expressing recipient cells” and the “EV-mediated aggregate induction in recipient cells” value (N2a NM-GFP^sol cells) is reported as “basically abolished EV-mediated aggregate induction in recipient cells”.
